Laboratory results taken from US6835536B2, “Antimicrobial cationic peptides and formulations thereof” (Micrologix Biotech Inc., priority 2001, dated 2004).

Legend:
Experiment in all cases: Agarose dilution MIC assay
Format in all cases: cell-based
[1] = tested on: S. mitis; settings: S. mitis strain SMT014
Description: (§1) The agarose dilution assay measures antimicrobial activity of peptides and peptide analogues. The activity is expressed as the minimum inhibitory concentration (MIC) in μg/ml of the peptide.
(§2) In order to mimic in vivo conditions, calcium and magnesium supplemented Mueller Hinton broth is used in combination with a low EEO agarose as the bacterial growth medium. Agarose, rather than agar, is used as the charged groups in agar prevent peptide diffusion through the medium. The medium is autoclaved, then cooled to 50-55° C. in a water bath before aseptic addition of a peptide solution. The same volume of different concentrations of peptide solution is added to the cooled, molten agarose that is then poured into a petri plate to a depth of 3-4 mm and allowed to solidify.
(§3) The bacterial inoculum is adjusted to a 0.5 McFarland turbidity standard (PML Microbiological) and then diluted 1:10 before application on to the agarose plate. The final inoculum applied to the agarose is approximately 10^4 CFU in a 5-8 mm diameter spot. The agarose plates are incubated at 35-37° C. for 16 to 20 hours.

[2] = tested on: S. marcescens; settings: S. marcescens strain SMS003
Description: as §1, §2, §3

[3] = tested on: A. calcoaceticus; settings: A. calcoaceticus strain ACA002
Description: as §1, §2, §3

[4] = tested on: S. pneumoniae; settings: S. pneumoniae strain SPN002
Description: as §1, §2, §3

[5] = tested on: S. aureus; settings: S. aureus strain SAU014; agarose dilution
Description: as §1, §2, §3

[6] = tested on: K. pneumoniae; settings: K. pnenmoniae strain KPN001
Description: as §1, §2, §3

[7] = tested on: P. aeruginosa; settings: P. aeruginosa strain PAE004; agarose dilution
Description: as §1, §2, §3

[8] = tested on: C. jeikeium; settings: C. jeikeium strain CJK005
Description: as §1, §2, §3

[9] = tested on: S. maltophilia; settings: S. maltophilia strain SMA002
Description: as §1, §2, §3

[10] = tested on: E. cloacae; settings: E. cloacae strain ECL007
Description: as §1, §2, §3

[11] = tested on: S. pyogenes; settings: S. pyogenes strain SPY001
Description: as §1, §2, §3

[12] = tested on: S. epidermidis; settings: S. epidermidis strain SEP010; agarose dilution
Description: as §1, §2, §3

[13] = tested on: E. faecalis; settings: E. faecalis strain EFS001
Description: as §1, §2, §3

[14] = tested on: E. coli; settings: E. coli strain ECO005
Description: as §1, §2, §3

[15] = tested on: C. albicans; settings: C. albicans strain CAL002; agarose dilution
Description: as §1, §2, §3

[16] = tested on: C. neoformans; settings: C. neoformans strain CNE001
Description: as §1, §2, §3

Row | Substance | Minimum Inhibitory Concentration [1] [µg/mL] | Minimum Inhibitory Concentration [2] [µg/mL] | Minimum Inhibitory Concentration [3] [µg/mL] | Minimum Inhibitory Concentration [4] [µg/mL] | Minimum Inhibitory Concentration [5] [µg/mL] | Minimum Inhibitory Concentration [6] [µg/mL] | Minimum Inhibitory Concentration [7] [µg/mL] | Minimum Inhibitory Concentration [8] [µg/mL] | Minimum Inhibitory Concentration [9] [µg/mL] | Minimum Inhibitory Concentration [10] [µg/mL] | Minimum Inhibitory Concentration [11] [µg/mL] | Minimum Inhibitory Concentration [12] [µg/mL] | Minimum Inhibitory Concentration [13] [µg/mL] | Minimum Inhibitory Concentration [14] [µg/mL] | Minimum Inhibitory Concentration [15] [µg/mL] | Minimum Inhibitory Concentration [16] [µg/mL]
1 | R L W V W W V W R r [Peptide 11F68CN] | 1 | >128 | 1 | 2 | 2 | 2 | 32 | 0.5 | 2 | 32 | 1 | 1 | 2 | 2 | 32 | 8
2 | R L W W V V W W R R [Peptide 11F56CN] | 1 | >128 | 1 | 2 | 1 | 2 | 32 | 0.5 | 2 | 32 | 1 | 1 | 2 | 2 | 16 | 8
3 | i L K K W P W W P W R R k [Peptide 11E3CN] | 2 | >128 | 4 | 4 | 8 | 32 | 64 | 0.5 | 64 | >128 | 1 | 4 | 64 | 8 | 32 | 4
4 | r L W V W W V W R R [Peptide 11F67CN] | 1 | >128 | 2 | 2 | 2 | 2 | 16 | 0.5 | 2 | 32 | 1 | 1 | 4 | 2 | 32 | 8
